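Test compounds were applied to cells in 96-well plates for 48 hours at 5 doses. GI50 = concentration required for 50% inhibition of growth. The concentration for full growth arrest is given as TGI.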

Test systems include A498 renal; A549 NSCLC; NCI-H23 lung; NCI-H522 lung; OVCAR-4 ovarian; OVCAR-8 ovarian; U251 CNS; UACC-62 melanoma; HCC-2998 colon; NCI-H226 lung.
What all share (test): NCI-60 cell line screen, 48 h

As to `C=CC1(C)/C(=N\O)C(C)(CC)C(=O)N1O` (centres undefined), the TGI in the assay with A498 renal, in the assay with A549 NSCLC, in the assay with NCI-H23 lung, in the assay with NCI-H522 lung, in the assay with OVCAR-4 ovarian and with OVCAR-8 ovarian was greater than 100 µM throughout. For the same compound, the TGI in the assay on U251 CNS and in the assay with UACC-62 melanoma was greater than 100 µM throughout.
Regarding `COc1cccc(C(=O)O)c1Cc1cccc2ccccc12`, the TGI with A549 NSCLC, in the assay on HCC-2998 colon, with NCI-H226 lung, in the assay on NCI-H23 lung, in the assay with NCI-H522 lung and in the assay with OVCAR-4 ovarian was greater than 100 µM each time. Besides, the TGI with OVCAR-8 ovarian, in the assay on U251 CNS and in the assay with UACC-62 melanoma was greater than 100 µM in each case.
For `NC(N)=NS(=O)(=O)c1ccc(NC(=O)c2ccc(Cl)c3c(Nc4ccc(S(=O)(=O)N=C(N)N)cc4)c4ccccc4nc23)cc1`, the TGI in the assay on A498 renal, with A549 NSCLC, in the assay on NCI-H23 lung, in the assay with NCI-H522 lung, with OVCAR-4 ovarian and in the assay on OVCAR-8 ovarian was greater than 100 µM in each case. Moreover, the TGI in the assay with U251 CNS and with UACC-62 melanoma was greater than 100 µM in each case.
Take `Cn1c(-c2c(N)n(Cc3ccc(Cl)cc3)c3nc(C#N)c(C#N)nc23)nc2ccccc21`: the GI50 in the assay on A549 NSCLC is 5.02 µM; with HCC-2998 colon, 1.08 µM; in the assay with NCI-H23 lung it was 1.18 µM; in the assay with NCI-H522 lung it was 2.83 µM; in the assay with OVCAR-4 ovarian, 3.89 µM; with OVCAR-8 ovarian, 5.37 µM. The GI50 was 3.76 µM in the assay with U251 CNS and 2.26 µM in the assay on UACC-62 melanoma. In addition, the TGI with A549 NSCLC was 19.8 µM; in the assay on HCC-2998 colon it was 3.57 µM; with NCI-H23 lung, 2.48 µM; in the assay on NCI-H522 lung, 15.6 µM; with OVCAR-4 ovarian, 18.6 µM; in the assay on OVCAR-8 ovarian, 23.4 µM. The results for the TGI in the assay on U251 CNS and with UACC-62 melanoma were 13 µM and 9.71 µM, respectively.
Turning to `CP(=O)(CCSc1ccccc1)c1ccccc1` (centres undefined), the TGI with A498 renal, with A549 NSCLC, with HCC-2998 colon, with NCI-H226 lung, with NCI-H23 lung and in the assay with OVCAR-4 ovarian was greater than 100 µM each time. The TGI with OVCAR-8 ovarian, in the assay on U251 CNS and in the assay with UACC-62 melanoma was greater than 100 µM each time.
In the case of `COc1cc([N+](=O)[O-])c(S(=O)(=O)O)cc1-n1nc(-c2ccccc2)n[n+]1-c1cc(S(=O)(=O)[O-])c([N+](=O)[O-])cc1OC`, the TGI in the assay with A549 NSCLC, with HCC-2998 colon, in the assay on NCI-H226 lung, with NCI-H23 lung, in the assay on NCI-H522 lung and with OVCAR-4 ovarian was greater than 100 µM each time. Besides, the TGI with OVCAR-8 ovarian, in the assay with U251 CNS and with UACC-62 melanoma was greater than 100 µM throughout.
In the case of `S=C(S)NCCCn1ccnc1`, the TGI in the assay on A498 renal, in the assay with A549 NSCLC, in the assay with NCI-H226 lung, in the assay with NCI-H23 lung, in the assay on NCI-H522 lung and with OVCAR-4 ovarian was greater than 100 µM throughout. Moreover, the TGI in the assay with OVCAR-8 ovarian, in the assay with U251 CNS and in the assay on UACC-62 melanoma was greater than 100 µM throughout.
Consider `CCOC(=O)NC(=O)c1cn(-c2ccc(CCOC(=O)CCCCCCCCC(=O)OCCc3ccc(-n4cc(C(=O)NC(=O)OCC)c(=O)[nH]c4=O)cc3)cc2)c(=O)[nH]c1=O`, for which the TGI in the assay on A549 NSCLC, in the assay on HCC-2998 colon, with NCI-H226 lung, with NCI-H23 lung, in the assay on OVCAR-4 ovarian and in the assay with OVCAR-8 ovarian was greater than 100 µM throughout. The TGI in the assay with U251 CNS and with UACC-62 melanoma was greater than 100 µM throughout.
For the compound `CCCCn1c(=O)c(/C=C/C(=O)/C=C/c2ccc(O)c(OC)c2)cc2ccc(Cl)cc21`, the GI50 in the assay on A549 NSCLC is 1.72 µM; in the assay with HCC-2998 colon, 2.05 µM; in the assay with NCI-H226 lung, 1.77 µM; in the assay on NCI-H23 lung, 2.06 µM; with NCI-H522 lung, 1.78 µM; with OVCAR-4 ovarian it was 2.34 µM. The GI50 is 2.47 µM in the assay with OVCAR-8 ovarian, 1.59 µM in the assay on U251 CNS and 1.48 µM in the assay with UACC-62 melanoma. For the same compound, the TGI was determined as 4.84 µM in the assay with A549 NSCLC; 3.54 µM in the assay on HCC-2998 colon; 4.23 µM in the assay on NCI-H226 lung; 4.98 µM in the assay on NCI-H23 lung; 3.86 µM in the assay with NCI-H522 lung; 9.81 µM in the assay with OVCAR-4 ovarian. Moreover, the TGI was 9.49 µM in the assay with OVCAR-8 ovarian, 3.08 µM in the assay with U251 CNS and 3.24 µM in the assay with UACC-62 melanoma.
As for `O=C(O)C1(C(=O)O)CCN(S(=O)(=O)c2ccccc2)CC1`, the TGI in the assay with A498 renal, in the assay with A549 NSCLC, in the assay with NCI-H226 lung, with NCI-H23 lung, in the assay on NCI-H522 lung and with OVCAR-4 ovarian was greater than 100 µM in each case. The TGI in the assay with OVCAR-8 ovarian, in the assay with U251 CNS and in the assay on UACC-62 melanoma was greater than 100 µM in each case.
`COC(=O)c1c(C(=O)OC)c(C(=O)OC)c(C(=O)OC)c1C(=O)OC`: the TGI with A549 NSCLC, in the assay with HCC-2998 colon, with NCI-H23 lung, in the assay on NCI-H522 lung, in the assay with OVCAR-4 ovarian and in the assay with OVCAR-8 ovarian was greater than 100 µM each time. The TGI with U251 CNS and in the assay with UACC-62 melanoma was greater than 100 µM in each case.
Regarding `c1ccc(CN2CCC3(CC2)ONC2=NCCN23)cc1`, the GI50 is greater than 100 µM in the assay with A498 renal; 88.4 µM in the assay on A549 NSCLC; 86.8 µM in the assay with NCI-H226 lung; 54.9 µM in the assay with NCI-H23 lung; 37.8 µM in the assay on NCI-H522 lung; greater than 100 µM in the assay with OVCAR-4 ovarian. Further, the figures for the GI50 in the assay on OVCAR-8 ovarian, with U251 CNS and in the assay with UACC-62 melanoma were 60.9 µM, 60.1 µM and 70.8 µM, respectively. The TGI in the assay on A498 renal, in the assay on A549 NSCLC, in the assay with NCI-H226 lung, in the assay on NCI-H23 lung, in the assay on NCI-H522 lung and with OVCAR-4 ovarian was greater than 100 µM in each case. The TGI with OVCAR-8 ovarian, in the assay on U251 CNS and in the assay with UACC-62 melanoma was greater than 100 µM throughout.

The record behind these values is PubChem BioAssay (NCI).
